Results on twelve compounds are retold here after ChEMBL document CHEMBL1128130, “Hydroxamate inhibitors of human gelatinase B (92 kDa)” (Bioorg Med Chem Lett, 1995).

Molecules are shown by their SMILES.

Experiment [1] deals with Matrix metalloproteinase-9 (Homo sapiens, UniProt P14780).
Description: Inhibition of human Matrix metalloprotease-9
In the next experiment the target is T1, Interstitial collagenase (Homo sapiens, UniProt P03956).
T1 sequence (P03956 whole entry): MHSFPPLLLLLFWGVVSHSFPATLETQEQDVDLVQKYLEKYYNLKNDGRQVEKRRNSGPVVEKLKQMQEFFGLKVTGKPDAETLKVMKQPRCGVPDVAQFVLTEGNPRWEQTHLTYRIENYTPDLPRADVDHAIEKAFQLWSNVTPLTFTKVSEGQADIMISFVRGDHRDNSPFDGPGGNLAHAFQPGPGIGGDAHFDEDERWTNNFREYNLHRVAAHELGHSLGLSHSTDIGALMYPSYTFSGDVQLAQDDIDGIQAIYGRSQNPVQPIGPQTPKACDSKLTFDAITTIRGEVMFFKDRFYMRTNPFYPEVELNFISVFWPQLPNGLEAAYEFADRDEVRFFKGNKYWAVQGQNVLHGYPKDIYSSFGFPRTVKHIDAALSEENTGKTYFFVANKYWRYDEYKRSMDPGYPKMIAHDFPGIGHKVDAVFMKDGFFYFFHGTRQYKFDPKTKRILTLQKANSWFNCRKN

For another experiment, the target named is Stromelysin-1 (Homo sapiens, UniProt P08254).
Stromelysin-1, sequence (P08254 whole entry): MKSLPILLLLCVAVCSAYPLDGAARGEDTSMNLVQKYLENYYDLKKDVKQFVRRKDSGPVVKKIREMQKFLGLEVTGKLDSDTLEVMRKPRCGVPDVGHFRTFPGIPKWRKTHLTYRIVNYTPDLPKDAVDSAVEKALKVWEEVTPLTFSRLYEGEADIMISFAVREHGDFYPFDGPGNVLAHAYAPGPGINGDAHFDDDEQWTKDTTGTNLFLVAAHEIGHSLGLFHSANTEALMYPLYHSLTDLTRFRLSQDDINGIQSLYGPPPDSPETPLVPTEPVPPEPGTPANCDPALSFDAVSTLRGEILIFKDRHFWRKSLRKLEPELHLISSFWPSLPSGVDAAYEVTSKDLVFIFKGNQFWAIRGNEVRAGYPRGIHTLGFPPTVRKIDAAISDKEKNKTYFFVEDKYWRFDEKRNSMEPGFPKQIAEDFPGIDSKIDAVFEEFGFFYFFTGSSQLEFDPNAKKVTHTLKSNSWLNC
The target in another experiment is Neutrophil collagenase (Homo sapiens, UniProt P22894).
Neutrophil collagenase, sequence (P22894 whole entry): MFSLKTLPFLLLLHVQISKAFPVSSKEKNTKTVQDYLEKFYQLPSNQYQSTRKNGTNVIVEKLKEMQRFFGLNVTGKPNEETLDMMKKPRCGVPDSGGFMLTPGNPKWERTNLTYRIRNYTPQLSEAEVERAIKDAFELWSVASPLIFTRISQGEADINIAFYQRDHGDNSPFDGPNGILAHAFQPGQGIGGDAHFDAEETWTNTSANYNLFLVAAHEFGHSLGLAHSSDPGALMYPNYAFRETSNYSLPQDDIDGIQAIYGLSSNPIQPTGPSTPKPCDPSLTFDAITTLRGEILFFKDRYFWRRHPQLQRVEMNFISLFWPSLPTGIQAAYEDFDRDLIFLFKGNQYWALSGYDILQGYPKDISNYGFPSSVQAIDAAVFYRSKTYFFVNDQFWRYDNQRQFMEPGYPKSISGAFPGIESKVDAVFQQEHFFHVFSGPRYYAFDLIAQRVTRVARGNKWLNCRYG

Matrix metalloproteinase-9, sequence (P14780 whole entry): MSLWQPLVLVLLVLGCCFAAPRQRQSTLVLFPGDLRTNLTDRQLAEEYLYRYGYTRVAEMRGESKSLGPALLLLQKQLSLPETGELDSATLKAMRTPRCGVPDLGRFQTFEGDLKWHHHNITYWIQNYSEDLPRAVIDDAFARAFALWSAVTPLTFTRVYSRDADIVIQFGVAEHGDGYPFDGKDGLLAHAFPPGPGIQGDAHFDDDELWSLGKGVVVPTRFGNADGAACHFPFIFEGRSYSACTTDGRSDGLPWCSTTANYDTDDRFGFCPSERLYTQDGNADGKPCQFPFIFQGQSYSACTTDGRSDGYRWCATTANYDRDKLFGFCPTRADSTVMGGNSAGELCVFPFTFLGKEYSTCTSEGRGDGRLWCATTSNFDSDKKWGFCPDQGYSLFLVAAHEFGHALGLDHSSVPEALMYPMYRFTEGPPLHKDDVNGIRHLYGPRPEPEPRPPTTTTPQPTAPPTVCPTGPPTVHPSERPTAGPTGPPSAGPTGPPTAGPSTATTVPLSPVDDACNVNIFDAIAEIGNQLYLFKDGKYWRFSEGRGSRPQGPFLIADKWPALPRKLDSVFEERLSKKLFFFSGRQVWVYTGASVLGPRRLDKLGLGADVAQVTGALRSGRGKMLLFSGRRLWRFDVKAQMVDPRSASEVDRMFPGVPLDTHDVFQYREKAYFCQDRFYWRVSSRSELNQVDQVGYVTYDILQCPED
Description for Interstitial collagenase: Inhibition of human fibroblast collagenase, matrix metalloprotease-1
Description for Neutrophil collagenase: Inhibition of human Matrix metalloprotease-8
Description for Stromelysin-1: Inhibition of human fibroblast stromelysin, matrix metalloprotease-3

What is called Ki is a measure of affinity in units of concentration, obtained from inhibition or displacement. A high value points to a looser hold on the target. In experiment [1], `CNC(=O)[C@H](Cc1ccccc1)NC(=O)[C@H](CCCCOCc1ccccc1)CC(=O)NO` registered a Ki of 3.3 nM.

Regarding `CC[C@H](CC(=O)NO)C(=O)N[C@@H](Cc1c[nH]c2ccccc12)C(=O)NC`, the Ki on Interstitial collagenase came out at 180 nM; at Stromelysin-1 it was 2700 nM; on Neutrophil collagenase, 100 nM; in experiment [1] it was 20 nM.

On to `CNC(=O)[C@@H](NC(=O)[C@H](CCCCOCc1ccccc1)CC(=O)NO)C(C)(C)C`, for which the values for the Ki (on Stromelysin-1; at Neutrophil collagenase; in experiment [1]) were 39 nM, 4.7 nM and 11 nM, respectively.

`CNC(=O)[C@H](Cc1c[nH]c2ccccc12)NC(=O)[C@@H](CC(=O)NO)CC(C)C` [ILOMASTAT] had a Ki at Stromelysin-1 of 46 nM.

Compound `CNC(=O)[C@H](Cc1ccccc1)NC(=O)[C@@H](CC(=O)NO)CC(C)C` came in with a Ki in experiment [1] of 1.4 nM.

Take `CCCCC[C@H](CC(=O)NO)C(=O)N[C@H](C(=O)N1CCCC1CO)C(C)C` (some centres undefined): the Ki at Interstitial collagenase is 300 nM; at Stromelysin-1, 1700 nM; at Neutrophil collagenase, 190 nM; in experiment [1], 330 nM.

On to `CNC(=O)[C@H](Cc1ccccc1)NC(=O)[C@H](CCCCCCc1ccccc1)CC(=O)NO`, for which the Ki was 8400 nM at Interstitial collagenase, 11 nM at Stromelysin-1, < 2 nM at Neutrophil collagenase and 1.3 nM in experiment [1].

As for `CCCCCc1ccc(OCCCC[C@H](CC(=O)NO)C(=O)N[C@H](C(=O)NC)C(C)(C)C)cc1`, the affinity in experiment [1], expressed as Ki, was 3.8 nM.

For the compound `CNC(=O)CNC(=O)[C@H](CCCCOCc1ccccc1)CC(=O)NO`, the Ki on Interstitial collagenase is > 100 nM; on Stromelysin-1, 3500 nM; at Neutrophil collagenase, 170 nM; in experiment [1], 5600 nM.

In experiment [1], `CNC(=O)[C@H](Cc1ccccc1)NC(=O)[C@H](CCCCCOc1ccccc1)CC(=O)NO` gave a Ki of 0.31 nM.

For the compound `CNC(=O)[C@H](Cc1c[nH]c2ccccc12)NC(=O)[C@H](C)CC(=O)NO`, the Ki is 8500 nM on Interstitial collagenase, 40000 nM at Stromelysin-1, 4200 nM on Neutrophil collagenase and 500 nM in experiment [1].

For the compound `CNC(=O)[C@H](Cc1ccccc1)NC(=O)[C@H](CCCCOc1ccccc1)CC(=O)NO`, in experiment [1], affinity was put at a Ki of 1.2 nM. This lies in the single-digit nanomolar range.
